Experimental data as given in ChEMBL document CHEMBL1828515, “Pantolactams as androgen receptor antagonists for the topical suppression of sebum production” (Bioorg Med Chem Lett, 2011).

System: Syrian golden hamster
Assay: Reduction of cholesterol ester in Syrian golden hamster ear model at 2 % administered topically
Format: functional, Mesocricetus auratus
Parameters: scale not given: the % may be the effect or the level left

Compound	Activity [%]
CCCCN1CC(C)(C)C(Oc2ccc(C#N)c(C(F)(F)F)c2)C1=O (single isomer, unassigned; (+))	66

System: Syrian golden hamster
Assay: Reduction of cholesterol ester in Syrian golden hamster ear model at 1 % administered topically
Format: functional, Mesocricetus auratus
Parameters: scale not given: the % may be the effect or the level left

Compound	Activity [%]
CCCN1CC(C)(C)C(Oc2ccc(C#N)c(C(F)(F)F)c2)C1=O (single isomer, unassigned; (+))	76

System: Syrian golden hamster
Assay: Reduction of wax ester in Syrian golden hamster ear model at 3 % administered topically
Format: functional, Mesocricetus auratus
Parameters: scale not given: the % may be the effect or the level left

Compound	Activity [%]
CC1(C)CN(Cc2ccccc2)C(=O)C1Oc1ccc(C#N)c(C(F)(F)F)c1 (single isomer, unassigned; (+))	83
CC1(C)CN(Cc2ccccc2F)C(=O)C1Oc1ccc(C#N)c(C(F)(F)F)c1 (single isomer, unassigned; (+))	86

System: Syrian golden hamster
Assay: Reduction of cholesterol ester in Syrian golden hamster ear model at 3 % administered topically
Format: functional, Mesocricetus auratus
Parameters: scale not given: the % may be the effect or the level left

Compound	Activity [%]
CC1(C)CN(Cc2ccccc2)C(=O)C1Oc1ccc(C#N)c(C(F)(F)F)c1 (single isomer, unassigned; (+))	68
CC1(C)CN(Cc2ccccc2F)C(=O)C1Oc1ccc(C#N)c(C(F)(F)F)c1 (single isomer, unassigned; (+))	70

System: Syrian golden hamster
Assay: Reduction of wax ester in Syrian golden hamster ear model at 1.5 % administered topically
Format: functional, Mesocricetus auratus
Parameters: scale not given: the % may be the effect or the level left

Compound	Activity [%]
CSc1ccc(CN2CC(C)(C)C(Oc3ccc(C#N)c(C(F)(F)F)c3)C2=O)cc1 (single isomer, unassigned; (+))	89

System: Syrian golden hamster
Assay: Reduction of wax ester in Syrian golden hamster ear model at 2 % administered topically
Format: functional, Mesocricetus auratus
Parameters: scale not given: the % may be the effect or the level left

Compound	Activity [%]
CCCCN1CC(C)(C)C(Oc2ccc(C#N)c(C(F)(F)F)c2)C1=O (single isomer, unassigned; (+))	83

System: Syrian golden hamster
Assay: Reduction of cholesterol ester in Syrian golden hamster ear model at 1.5 % administered topically
Format: functional, Mesocricetus auratus
Parameters: scale not given: the % may be the effect or the level left

Compound	Activity [%]
CSc1ccc(CN2CC(C)(C)C(Oc3ccc(C#N)c(C(F)(F)F)c3)C2=O)cc1 (single isomer, unassigned; (+))	75

Biological target: T1, Androgen receptor (Homo sapiens, UniProt P10275)
T1 sequence (P10275 whole entry): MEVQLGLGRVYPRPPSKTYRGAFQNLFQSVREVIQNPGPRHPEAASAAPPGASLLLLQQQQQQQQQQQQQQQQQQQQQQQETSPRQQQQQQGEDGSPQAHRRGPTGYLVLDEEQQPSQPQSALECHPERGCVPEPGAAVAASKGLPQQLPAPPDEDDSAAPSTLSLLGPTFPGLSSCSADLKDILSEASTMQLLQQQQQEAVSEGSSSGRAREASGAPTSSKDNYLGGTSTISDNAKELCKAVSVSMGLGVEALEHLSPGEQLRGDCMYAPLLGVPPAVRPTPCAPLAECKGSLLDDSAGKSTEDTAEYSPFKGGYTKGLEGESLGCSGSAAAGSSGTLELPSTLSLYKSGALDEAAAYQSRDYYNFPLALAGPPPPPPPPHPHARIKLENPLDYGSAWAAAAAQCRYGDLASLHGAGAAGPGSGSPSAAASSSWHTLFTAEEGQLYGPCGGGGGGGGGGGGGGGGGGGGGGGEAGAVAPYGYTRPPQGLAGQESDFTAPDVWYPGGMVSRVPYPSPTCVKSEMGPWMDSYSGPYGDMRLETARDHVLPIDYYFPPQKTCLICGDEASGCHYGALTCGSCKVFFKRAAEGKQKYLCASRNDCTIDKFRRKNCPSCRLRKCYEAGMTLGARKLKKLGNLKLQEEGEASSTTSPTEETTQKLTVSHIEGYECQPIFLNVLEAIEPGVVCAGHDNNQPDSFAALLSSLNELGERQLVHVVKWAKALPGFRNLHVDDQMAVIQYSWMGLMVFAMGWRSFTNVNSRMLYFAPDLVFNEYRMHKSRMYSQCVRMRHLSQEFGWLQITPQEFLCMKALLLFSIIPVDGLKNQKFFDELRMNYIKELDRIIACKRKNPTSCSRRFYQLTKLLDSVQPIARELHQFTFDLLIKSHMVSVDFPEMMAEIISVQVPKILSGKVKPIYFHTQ
Assay: Antagonist activity at human androgen receptor by cell based assay
Format: functional

Compound	IC50 [nM]
CC1(C)CNC(=O)C1Oc1ccc(C#N)c(C(F)(F)F)c1 (racemic)	82
CC1(C)CN(Cc2noc(-c3ccccc3)n2)C(=O)C1Oc1ccc(C#N)c(C(F)(F)F)c1 (racemic)	40
CC1(C)CN(Cc2ccncc2)C(=O)C1Oc1ccc(C#N)c(C(F)(F)F)c1 (racemic)	> 600
CC1(C)CN(Cc2ccccc2)C(=O)C1Oc1ccc(C#N)c(C(F)(F)F)c1 (single isomer, unassigned; (+))	38
CC1(C)COC(=O)C1Oc1ccc(C#N)c(C(F)(F)F)c1 (racemic)	70
CC1(C)COC(=O)[C@@H]1Oc1ccc(C#N)c(C(F)(F)F)c1	42
CC1(C)CN(Cc2ccccc2)C(=O)C1Oc1ccc(C#N)c(C(F)(F)F)c1 (racemic)	11
CC1(C)CN(Cc2cccc(O)c2)C(=O)C1Oc1ccc(C#N)c(C(F)(F)F)c1 (racemic)	> 600
CCCCN1CC(C)(C)C(Oc2ccc(C#N)c(C(F)(F)F)c2)C1=O (single isomer, unassigned; (+))	10
CSc1ccc(CN2CC(C)(C)C(Oc3ccc(C#N)c(C(F)(F)F)c3)C2=O)cc1 (stereo in doubt; 38)	51
CCCC(C)N1CC(C)(C)C(Oc2ccc(C#N)c(C(F)(F)F)c2)C1=O (racemic)	6
CC1(C)CN(Cc2ccccc2F)C(=O)C1Oc1ccc(C#N)c(C(F)(F)F)c1 (single isomer, unassigned; (+))	92
CC1(C)CN(Cc2ccc(O)cc2)C(=O)C1Oc1ccc(C#N)c(C(F)(F)F)c1 (racemic)	32
CCC(C)N1CC(C)(C)C(Oc2ccc(C#N)c(C(F)(F)F)c2)C1=O (single isomer, unassigned; (+))	32
CCCCN1CC(C)(C)C(Oc2ccc(C#N)c(C(F)(F)F)c2)C1=O (racemic)	16
CC1(C)COC(=O)[C@H]1Oc1ccc(C#N)c(C(F)(F)F)c1	1000
CSc1ccc(CN2CC(C)(C)C(Oc3ccc(C#N)c(C(F)(F)F)c3)C2=O)cc1 (single isomer, unassigned; (+))	28
CC1(C)CN(Cc2cccc(F)c2)C(=O)C1Oc1ccc(C#N)c(C(F)(F)F)c1 (racemic)	61
CCOC(=O)c1ccc(CN2CC(C)(C)C(Oc3ccc(C#N)c(C(F)(F)F)c3)C2=O)o1 (racemic)	97
CCCN1CC(C)(C)C(Oc2ccc(C#N)c(C(F)(F)F)c2)C1=O (single isomer, unassigned; (+))	83
CC1(C)CN(Cc2ccccc2F)C(=O)C1Oc1ccc(C#N)c(C(F)(F)F)c1 (racemic)	44
CC1(C)CN(Cc2ccccc2O)C(=O)C1Oc1ccc(C#N)c(C(F)(F)F)c1 (racemic)	13
COc1cccc(CN2CC(C)(C)C(Oc3ccc(C#N)c(C(F)(F)F)c3)C2=O)c1 (racemic)	309
COC(=O)c1csc(CN2CC(C)(C)C(Oc3ccc(C#N)c(C(F)(F)F)c3)C2=O)n1 (racemic)	> 900
CCCN1CC(C)(C)C(Oc2ccc(C#N)c(C(F)(F)F)c2)C1=O (racemic)	24
CC1(C)CN(Cc2nc3ccccc3s2)C(=O)C1Oc1ccc(C#N)c(C(F)(F)F)c1 (racemic)	51
CC1(C)CN(Cc2ccc(F)cc2)C(=O)C1Oc1ccc(C#N)c(C(F)(F)F)c1 (racemic)	199
CC1(C)CN(Cc2nc(-c3ccccc3)no2)C(=O)C1Oc1ccc(C#N)c(C(F)(F)F)c1 (racemic)	54

System: Syrian golden hamster
Assay: Reduction of wax ester in Syrian golden hamster ear model at 1 % administered topically
Format: functional, Mesocricetus auratus
Parameters: scale not given: the % may be the effect or the level left

Compound	Activity [%]
CC1(C)C(=O)N(c2ccc(C#N)c(C(F)(F)F)c2)C(=O)N1CCCCO [RU-58841]	95
CCCN1CC(C)(C)C(Oc2ccc(C#N)c(C(F)(F)F)c2)C1=O (single isomer, unassigned; (+))	85

Biological target: T1, Androgen receptor
Assay: Binding affinity to human androgen receptor

Compound	IC50 [nM]
CC1(C)CNC(=O)C1Oc1ccc(C#N)c(C(F)(F)F)c1 (racemic)	2790
CC1(C)CN(Cc2noc(-c3ccccc3)n2)C(=O)C1Oc1ccc(C#N)c(C(F)(F)F)c1 (racemic)	84
CCC(C)N1CC(C)(C)C(Oc2ccc(C#N)c(C(F)(F)F)c2)C1=O (stereo in doubt; 18)	9790
CC1(C)CN(Cc2ccccc2)C(=O)C1Oc1ccc(C#N)c(C(F)(F)F)c1 (single isomer, unassigned; (+))	100
CSCCN1CC(C)(C)C(Oc2ccc(C#N)c(C(F)(F)F)c2)C1=O (racemic)	2450
CC(C)CCCN1CC(C)(C)C(Oc2ccc(C#N)c(C(F)(F)F)c2)C1=O (racemic)	802
CC1(C)COC(=O)C1Oc1ccc(C#N)c(C(F)(F)F)c1 (racemic)	113
CC1(C)COC(=O)[C@@H]1Oc1ccc(C#N)c(C(F)(F)F)c1	70
CCOC(=O)CN1CC(C)(C)C(Oc2ccc(C#N)c(C(F)(F)F)c2)C1=O (racemic)	3520
Cc1nc(CN2CC(C)(C)C(Oc3ccc(C#N)c(C(F)(F)F)c3)C2=O)cs1 (racemic)	324
CC1(C)CN(Cc2ccccc2)C(=O)C1Oc1ccc(C#N)c(C(F)(F)F)c1 (racemic)	30
CC1(C)CN(Cc2cccnc2)C(=O)C1Oc1ccc(C#N)c(C(F)(F)F)c1 (racemic)	880
CN1CC(C)(C)C(Oc2ccc(C#N)c(C(F)(F)F)c2)C1=O (racemic)	1210
CCCCN1CC(C)(C)C(Oc2ccc(C#N)c(C(F)(F)F)c2)C1=O (single isomer, unassigned; (+))	91
CC1(C)CN(Cc2ccccn2)C(=O)C1Oc1ccc(C#N)c(C(F)(F)F)c1 (racemic)	767
CSc1ccc(CN2CC(C)(C)C(Oc3ccc(C#N)c(C(F)(F)F)c3)C2=O)cc1 (stereo in doubt; 38)	187
CCCC(C)N1CC(C)(C)C(Oc2ccc(C#N)c(C(F)(F)F)c2)C1=O (racemic)	200

Compound	IC50 [nM]
CC1(C)CN(Cc2ccccc2F)C(=O)C1Oc1ccc(C#N)c(C(F)(F)F)c1 (single isomer, unassigned; (+))	112
COC(=O)CN1CC(C)(C)C(Oc2ccc(C#N)c(C(F)(F)F)c2)C1=O (racemic)	494
CCC(CC)CN1CC(C)(C)C(Oc2ccc(C#N)c(C(F)(F)F)c2)C1=O (racemic)	444
CC1(C)CN(CCCO)C(=O)C1Oc1ccc(C#N)c(C(F)(F)F)c1 (racemic)	523
CCNC(=O)CN1CC(C)(C)C(Oc2ccc(C#N)c(C(F)(F)F)c2)C1=O (racemic)	4910
CCC(C)N1CC(C)(C)C(Oc2ccc(C#N)c(C(F)(F)F)c2)C1=O (single isomer, unassigned; (+))	132
CCCCN1CC(C)(C)C(Oc2ccc(C#N)c(C(F)(F)F)c2)C1=O (racemic)	119
CC1(C)COC(=O)[C@H]1Oc1ccc(C#N)c(C(F)(F)F)c1	10000
COCN1CC(C)(C)C(Oc2ccc(C#N)c(C(F)(F)F)c2)C1=O (racemic)	516
CCCCCCN1CC(C)(C)C(Oc2ccc(C#N)c(C(F)(F)F)c2)C1=O (racemic)	766
CSc1ccc(CN2CC(C)(C)C(Oc3ccc(C#N)c(C(F)(F)F)c3)C2=O)cc1 (single isomer, unassigned; (+))	316
CC1(C)CN(Cc2cccc(F)c2)C(=O)C1Oc1ccc(C#N)c(C(F)(F)F)c1 (racemic)	48
COc1ccc(CN2CC(C)(C)C(Oc3ccc(C#N)c(C(F)(F)F)c3)C2=O)cc1 (racemic)	284
CCOC(=O)c1ccc(CN2CC(C)(C)C(Oc3ccc(C#N)c(C(F)(F)F)c3)C2=O)o1 (racemic)	166
CCCN1CC(C)(C)C(Oc2ccc(C#N)c(C(F)(F)F)c2)C1=O (single isomer, unassigned; (+))	225
CC1(C)CN(Cc2ccccc2F)C(=O)C1Oc1ccc(C#N)c(C(F)(F)F)c1 (racemic)	174
COCCN1CC(C)(C)C(Oc2ccc(C#N)c(C(F)(F)F)c2)C1=O (racemic)	1770
